Patent publication US8981084B2, “Oxadiazole HDAC inhibitors” (Tempero Pharmaceuticals, Inc., priority 2011, dated 2015)

Target: T1, Recombinant HDAC9 isoform 4 (Homo sapiens, UniProt Q9UKV0)
T1 construct: purchased BPS Bioscience
Assay: Histone Deacetylase 9 (HDAC9) inhibition assay, fluorogenic substrate
Assay type: biochemical
Conditions: mean of a minimum of 2 experiments; 11 point 3x dilution series from 100 uM; Class IIa HDAC-specific fluorogenic substrate 4.5 uM; read-out: mean pIC50, inhibition of HDAC9 (converted)
Text: Histone Deacetylase 9 (HDAC9) Inhibition Assay:
Novel histone deacetylase 9 (HDAC9) inhibitors were characterized in an in vitro biochemical functional assay. The assay measures the increased fluorescent signal due to deacetylation, by HDAC9, of a fluorogenic substrate. The commercial available substrate is Class IIa HDAC-specific and contains an acetylated lysine residue and would releases the fluorescent signal upon trypsin cleavage after deacetylation.
Specifically, test compounds diluted to various concentrations in 100% DMSO are first dispensed into 384-well assay plates. Recombinant HDAC9 isoform 4 (purchased from BPS Bioscience) in complete assay buffer (50 mM Tris-HCl, pH 8.0, 137 mM NaCl, 2.7 mM KCl, 1 mM MgCl2, 0.05% BSA & 0.005% Tween 20) were then added to each well (5 uL/well) using Multidrop Combi (Thermo Scientific), followed by 5 uL/well substrate (purchased from BPS Bioscience, 4.5 uM final). After 45 minutes incubation at room temperature, 10 uL 2× developer solution (assay buffer with 40 uM Trypsin and 20 uM Trichostatin A) was added. The plates were then incubated 1 hour at room temperature before reading in fluorescent intensity mode at 450 nm in an Envision (Perkin Elmer) plate reader. Percent Inhibition of HDAC9 activity by compounds in each test wells was calculated by normalizing to fluorescent signal in control wells containing DMSO only. The pIC50s value of test compounds were calculated from non-linear curve fitting, using ActivityBase5 data analysis tool (IDBS), from 11 point 3× dilution series starting from 100 uM final compound concentration.
For dose response experiments, normalized data were fit by ABASE/XC50 using the equation y=a+(b−a)/(1+(10^×/10^c)^d), where a is the minimum % activity, b is the maximum % activity, c is the pIC50, d is the Hill slope.
The pIC50s are averaged to determine a mean value, for a minimum of 2 experiments. […] For instance, the compounds of Examples 1, 38, 61 and 79 inhibited HDAC9 in the above method with a mean pIC50 of >6.

T1 sequence (Q9UKV0 1-1066 isoform Q9UKV0-5): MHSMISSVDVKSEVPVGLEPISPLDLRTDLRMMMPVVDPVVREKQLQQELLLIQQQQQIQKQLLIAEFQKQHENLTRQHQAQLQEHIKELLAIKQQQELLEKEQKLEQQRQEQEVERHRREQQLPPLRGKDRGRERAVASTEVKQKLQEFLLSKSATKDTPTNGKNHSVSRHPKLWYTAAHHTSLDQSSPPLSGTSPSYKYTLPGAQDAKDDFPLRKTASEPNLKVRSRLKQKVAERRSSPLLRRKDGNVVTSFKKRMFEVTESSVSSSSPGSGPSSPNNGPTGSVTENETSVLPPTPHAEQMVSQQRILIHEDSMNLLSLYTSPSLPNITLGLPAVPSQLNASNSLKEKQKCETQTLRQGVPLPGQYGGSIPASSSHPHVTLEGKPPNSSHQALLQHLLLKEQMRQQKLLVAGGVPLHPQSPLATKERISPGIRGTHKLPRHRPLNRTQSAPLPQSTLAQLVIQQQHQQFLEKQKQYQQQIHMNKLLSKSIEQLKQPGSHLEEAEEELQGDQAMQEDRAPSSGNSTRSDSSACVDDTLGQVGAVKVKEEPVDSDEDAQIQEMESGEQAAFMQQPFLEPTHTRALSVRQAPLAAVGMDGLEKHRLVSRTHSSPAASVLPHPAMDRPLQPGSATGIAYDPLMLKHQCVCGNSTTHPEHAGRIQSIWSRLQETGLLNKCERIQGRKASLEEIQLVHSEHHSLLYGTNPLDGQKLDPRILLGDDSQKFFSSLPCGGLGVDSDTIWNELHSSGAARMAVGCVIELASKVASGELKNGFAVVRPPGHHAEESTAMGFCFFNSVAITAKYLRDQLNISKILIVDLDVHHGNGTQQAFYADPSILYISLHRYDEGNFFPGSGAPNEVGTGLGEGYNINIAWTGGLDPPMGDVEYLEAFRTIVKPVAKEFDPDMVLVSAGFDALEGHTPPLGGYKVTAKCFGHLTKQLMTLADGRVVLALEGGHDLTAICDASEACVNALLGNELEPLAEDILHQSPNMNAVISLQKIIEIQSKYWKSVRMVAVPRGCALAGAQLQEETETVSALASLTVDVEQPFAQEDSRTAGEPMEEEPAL

| IC50 [µM] | SMILES |
| --- | --- |
| < 1 | O=C(c1cccc(-c2noc(C(F)(F)F)n2)c1)N1CCCN(c2ccc(C(F)(F)F)cn2)CC1 [Example 1, (3-(5-(Trifluoromethyl)-1,2,4-oxadiazol-3-yl)phenyl)(4-(5-(trifluoromethyl)pyridin-2-yl)-1,4-diazepan-1-yl)methanone] |
| < 1 | O=C(c1cccc(-c2noc(C(F)(F)F)n2)c1)N1CC(Cc2nc(-c3ccc(F)cc3)cs2)C1 [Example 79, (3-((4-(4-Fluorophenyl)thiazol-2-yl)methyl)azetidin-1-yl)(3-(5-(trifluoromethyl)-1,2,4-oxadiazol-3-yl)phenyl)methanone] |
| < 1 | N#Cc1ccc(N2CCN(C(=O)c3cccc(-c4noc(C(F)(F)F)n4)c3)CC2)cc1 [Example 38, 4-(4-(3-(5-(Trifluoromethyl)-1,2,4-oxadiazol-3-yl)benzoyl)piperazin-1-yl)benzonitrile] |
| < 1 | N#Cc1ccc(N2CCN(C(=O)c3cccc(-c4ccc(C(=O)C(F)(F)F)s4)c3)CC2)nc1 [Example 61, 6-(4-(3-(5-(2,2,2-Trifluoroacetyl)thiophen-2-yl)benzoyl)piperazin-1-yl)nicotinonitrile] |
